Laboratory results taken from patent US8940477B2 (priority 2007, dated 2015).
Entries after “also recorded” stand apart in the source; their conditions may differ.

Target: BoNT/A (Clostridium botulinum, UniProt P0DPI1)
Format: cell-based

Chain of BoNT/A (P0DPI1 2-448 limits assumed): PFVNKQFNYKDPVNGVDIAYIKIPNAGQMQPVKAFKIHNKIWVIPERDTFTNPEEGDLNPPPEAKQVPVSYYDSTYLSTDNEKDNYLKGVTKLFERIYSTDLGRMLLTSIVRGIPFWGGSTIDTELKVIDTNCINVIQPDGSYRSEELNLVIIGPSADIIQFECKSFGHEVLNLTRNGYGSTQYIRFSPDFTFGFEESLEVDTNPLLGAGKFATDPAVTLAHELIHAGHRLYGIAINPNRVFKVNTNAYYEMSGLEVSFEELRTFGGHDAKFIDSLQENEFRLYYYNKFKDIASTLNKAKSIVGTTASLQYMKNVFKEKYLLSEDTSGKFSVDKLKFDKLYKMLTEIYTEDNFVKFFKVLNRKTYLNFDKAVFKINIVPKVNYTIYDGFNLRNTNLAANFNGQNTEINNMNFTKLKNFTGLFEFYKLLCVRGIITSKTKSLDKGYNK
Chain of BoNT/A (P0DPI1 449-1296 limits assumed): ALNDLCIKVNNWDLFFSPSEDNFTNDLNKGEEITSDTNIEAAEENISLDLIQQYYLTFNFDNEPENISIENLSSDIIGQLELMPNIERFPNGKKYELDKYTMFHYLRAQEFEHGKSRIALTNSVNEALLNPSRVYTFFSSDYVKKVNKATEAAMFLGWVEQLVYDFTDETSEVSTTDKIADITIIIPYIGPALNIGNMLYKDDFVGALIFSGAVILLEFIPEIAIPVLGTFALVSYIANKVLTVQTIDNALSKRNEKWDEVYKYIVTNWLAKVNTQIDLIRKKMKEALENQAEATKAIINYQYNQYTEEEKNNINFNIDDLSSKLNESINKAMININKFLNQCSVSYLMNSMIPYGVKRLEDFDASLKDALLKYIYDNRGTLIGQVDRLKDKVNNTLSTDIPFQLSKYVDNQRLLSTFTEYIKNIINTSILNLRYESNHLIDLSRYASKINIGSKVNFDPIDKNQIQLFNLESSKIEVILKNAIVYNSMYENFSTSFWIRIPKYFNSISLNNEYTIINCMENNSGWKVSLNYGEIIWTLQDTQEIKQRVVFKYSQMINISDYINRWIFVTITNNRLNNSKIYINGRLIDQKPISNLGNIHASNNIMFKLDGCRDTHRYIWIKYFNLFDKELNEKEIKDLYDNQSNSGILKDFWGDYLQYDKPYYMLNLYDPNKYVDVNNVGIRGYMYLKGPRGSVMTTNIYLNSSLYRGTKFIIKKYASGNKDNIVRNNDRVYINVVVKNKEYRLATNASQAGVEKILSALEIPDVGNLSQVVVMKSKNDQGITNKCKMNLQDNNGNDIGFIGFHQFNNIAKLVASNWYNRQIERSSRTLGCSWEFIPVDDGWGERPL

## CC(=O)O[C@@H]1C[C@H](O)[C@@]23CO[C@@H](O)[C@]1(C)[C@@H]2C[C@@H](O)[C@]1(C)[C@@H]3C(=O)[C@H](OC(C)=O)[C@@]2(C)[C@H](c3ccoc3)C[C@H]3O[C@]321 [Toosendanin]
  SNAP25 cleavage in presence of Toosendanin: only full-length SNAP25 was detected; also recorded: protects against BoNT/A induced SNAP25 cleavage
